{"source": "ChEMBL document CHEMBL5465560", "about": "“Selectivity Literature for EUbOPEN Chemogenomic Library” (2024)", "key": {"[1]": {"target": "Histamine H2 receptor (Homo sapiens) (UniProt P25021)", "sequence (P25021 whole entry)": "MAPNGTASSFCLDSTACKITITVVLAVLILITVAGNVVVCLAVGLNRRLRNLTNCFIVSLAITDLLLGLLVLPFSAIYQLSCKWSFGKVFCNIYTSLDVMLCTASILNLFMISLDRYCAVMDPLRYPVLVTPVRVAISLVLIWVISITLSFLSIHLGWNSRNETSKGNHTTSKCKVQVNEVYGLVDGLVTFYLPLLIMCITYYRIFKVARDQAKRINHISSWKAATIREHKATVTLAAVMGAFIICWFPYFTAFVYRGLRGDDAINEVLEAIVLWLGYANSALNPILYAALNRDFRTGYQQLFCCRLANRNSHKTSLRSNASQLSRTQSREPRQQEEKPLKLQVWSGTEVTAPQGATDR", "experiment": "Selectivity interaction (Eurofins CEREP Diversity Profile (receptors and ion channels)) EUB0000279b HRH2", "conditions": "at 10 µM"}, "[2]": {"target": "Dual specificity mitogen-activated protein kinase kinase 1 (Homo sapiens, UniProt Q02750)", "sequence (Q02750 whole entry)": "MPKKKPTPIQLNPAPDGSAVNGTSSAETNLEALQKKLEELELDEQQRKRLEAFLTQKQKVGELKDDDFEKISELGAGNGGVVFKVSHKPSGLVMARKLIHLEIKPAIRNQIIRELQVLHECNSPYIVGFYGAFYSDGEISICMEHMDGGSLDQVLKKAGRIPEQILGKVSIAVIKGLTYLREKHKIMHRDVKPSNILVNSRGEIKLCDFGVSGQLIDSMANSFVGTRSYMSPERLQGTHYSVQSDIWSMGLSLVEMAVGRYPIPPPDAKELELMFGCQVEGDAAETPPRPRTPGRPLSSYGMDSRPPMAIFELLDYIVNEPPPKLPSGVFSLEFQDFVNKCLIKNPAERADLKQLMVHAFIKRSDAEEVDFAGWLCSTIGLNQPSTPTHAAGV", "experiment": "Selectivity interaction (KinomeScan (DiscoverX)) EUB0001079a MAP2K1", "conditions": "at 1 µM"}, "[3]": {"target": "Ribosomal protein S6 kinase beta-2 (Homo sapiens) (UniProt Q9UBS0)", "sequence (Q9UBS0 whole entry)": "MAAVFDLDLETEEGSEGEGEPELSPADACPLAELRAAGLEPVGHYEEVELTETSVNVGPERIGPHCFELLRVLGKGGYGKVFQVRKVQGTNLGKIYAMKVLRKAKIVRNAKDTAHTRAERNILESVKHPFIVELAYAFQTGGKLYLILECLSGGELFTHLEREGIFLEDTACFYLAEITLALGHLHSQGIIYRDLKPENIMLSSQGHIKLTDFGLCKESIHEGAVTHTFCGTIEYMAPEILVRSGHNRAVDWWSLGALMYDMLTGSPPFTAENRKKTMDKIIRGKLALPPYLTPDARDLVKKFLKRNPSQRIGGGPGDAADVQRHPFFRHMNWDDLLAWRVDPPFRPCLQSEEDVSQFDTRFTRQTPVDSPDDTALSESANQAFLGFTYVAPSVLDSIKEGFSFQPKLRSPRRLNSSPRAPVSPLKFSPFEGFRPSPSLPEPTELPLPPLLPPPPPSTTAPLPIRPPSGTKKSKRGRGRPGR", "experiment": "Selectivity interaction (ActivX KiNativ screen (kinase selectivity in THP-1 cell lysates)) EUB0000639a RPS6KB2", "format": "subcellular", "conditions": "lysate"}, "[4]": {"target": "Serine/threonine-protein kinase 16 (Homo sapiens, UniProt O75716)", "sequence (O75716 whole entry)": "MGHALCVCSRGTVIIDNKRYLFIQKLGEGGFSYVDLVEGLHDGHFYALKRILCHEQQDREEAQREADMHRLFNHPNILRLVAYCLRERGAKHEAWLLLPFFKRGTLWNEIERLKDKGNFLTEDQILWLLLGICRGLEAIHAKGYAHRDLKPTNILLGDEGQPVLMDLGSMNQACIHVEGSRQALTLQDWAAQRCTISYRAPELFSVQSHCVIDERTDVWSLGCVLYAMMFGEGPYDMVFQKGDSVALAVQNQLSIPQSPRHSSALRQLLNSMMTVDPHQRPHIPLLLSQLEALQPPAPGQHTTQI", "experiment": "Selectivity interaction (Kinase panel (Invitrogen)) EUB0000639a STK16", "conditions": "at 200 nM"}, "[5]": {"target": "T1, Serine/threonine-protein kinase TAO2 (Homo sapiens) (UniProt Q9UL54)", "T1 sequence (whole entry)": "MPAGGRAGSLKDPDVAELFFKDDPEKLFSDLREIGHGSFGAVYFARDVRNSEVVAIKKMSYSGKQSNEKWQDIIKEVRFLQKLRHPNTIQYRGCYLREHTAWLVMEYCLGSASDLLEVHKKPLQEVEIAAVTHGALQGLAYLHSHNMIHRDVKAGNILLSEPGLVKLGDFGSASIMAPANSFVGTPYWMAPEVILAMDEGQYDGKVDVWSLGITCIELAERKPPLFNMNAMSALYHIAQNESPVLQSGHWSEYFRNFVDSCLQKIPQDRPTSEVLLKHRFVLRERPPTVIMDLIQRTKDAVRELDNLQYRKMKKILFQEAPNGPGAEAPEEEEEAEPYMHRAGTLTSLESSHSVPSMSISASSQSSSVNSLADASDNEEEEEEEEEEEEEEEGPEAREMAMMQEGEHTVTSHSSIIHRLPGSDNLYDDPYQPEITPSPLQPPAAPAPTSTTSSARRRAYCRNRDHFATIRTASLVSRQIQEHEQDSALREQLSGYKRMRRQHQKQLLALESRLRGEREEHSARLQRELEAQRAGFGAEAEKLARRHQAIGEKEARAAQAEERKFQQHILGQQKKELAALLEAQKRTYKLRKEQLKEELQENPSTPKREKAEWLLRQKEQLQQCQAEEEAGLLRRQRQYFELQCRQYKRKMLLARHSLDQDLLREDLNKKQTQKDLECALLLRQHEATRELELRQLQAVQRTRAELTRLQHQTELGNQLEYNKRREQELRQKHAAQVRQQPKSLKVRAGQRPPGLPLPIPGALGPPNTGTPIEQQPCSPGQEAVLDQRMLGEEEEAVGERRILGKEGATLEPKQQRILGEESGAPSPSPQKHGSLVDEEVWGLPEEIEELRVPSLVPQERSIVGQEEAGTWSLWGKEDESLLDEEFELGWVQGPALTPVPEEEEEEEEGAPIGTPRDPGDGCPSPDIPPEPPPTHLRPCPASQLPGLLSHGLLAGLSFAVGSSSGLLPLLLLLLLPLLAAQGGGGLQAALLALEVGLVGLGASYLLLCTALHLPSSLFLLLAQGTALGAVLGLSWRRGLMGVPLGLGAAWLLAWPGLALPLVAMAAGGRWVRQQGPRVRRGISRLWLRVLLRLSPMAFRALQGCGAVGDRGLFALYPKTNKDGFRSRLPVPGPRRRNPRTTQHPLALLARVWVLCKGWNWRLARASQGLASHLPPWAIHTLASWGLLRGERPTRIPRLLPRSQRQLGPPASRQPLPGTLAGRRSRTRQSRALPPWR", "experiment": "Selectivity interaction (KinomeScan (DiscoverX)) EUB0000092b TAOK2", "conditions": "at 10 µM"}, "[6]": {"target": "Ephrin type-A receptor 4 (Homo sapiens, UniProt P54764)", "sequence (P54764 whole entry)": "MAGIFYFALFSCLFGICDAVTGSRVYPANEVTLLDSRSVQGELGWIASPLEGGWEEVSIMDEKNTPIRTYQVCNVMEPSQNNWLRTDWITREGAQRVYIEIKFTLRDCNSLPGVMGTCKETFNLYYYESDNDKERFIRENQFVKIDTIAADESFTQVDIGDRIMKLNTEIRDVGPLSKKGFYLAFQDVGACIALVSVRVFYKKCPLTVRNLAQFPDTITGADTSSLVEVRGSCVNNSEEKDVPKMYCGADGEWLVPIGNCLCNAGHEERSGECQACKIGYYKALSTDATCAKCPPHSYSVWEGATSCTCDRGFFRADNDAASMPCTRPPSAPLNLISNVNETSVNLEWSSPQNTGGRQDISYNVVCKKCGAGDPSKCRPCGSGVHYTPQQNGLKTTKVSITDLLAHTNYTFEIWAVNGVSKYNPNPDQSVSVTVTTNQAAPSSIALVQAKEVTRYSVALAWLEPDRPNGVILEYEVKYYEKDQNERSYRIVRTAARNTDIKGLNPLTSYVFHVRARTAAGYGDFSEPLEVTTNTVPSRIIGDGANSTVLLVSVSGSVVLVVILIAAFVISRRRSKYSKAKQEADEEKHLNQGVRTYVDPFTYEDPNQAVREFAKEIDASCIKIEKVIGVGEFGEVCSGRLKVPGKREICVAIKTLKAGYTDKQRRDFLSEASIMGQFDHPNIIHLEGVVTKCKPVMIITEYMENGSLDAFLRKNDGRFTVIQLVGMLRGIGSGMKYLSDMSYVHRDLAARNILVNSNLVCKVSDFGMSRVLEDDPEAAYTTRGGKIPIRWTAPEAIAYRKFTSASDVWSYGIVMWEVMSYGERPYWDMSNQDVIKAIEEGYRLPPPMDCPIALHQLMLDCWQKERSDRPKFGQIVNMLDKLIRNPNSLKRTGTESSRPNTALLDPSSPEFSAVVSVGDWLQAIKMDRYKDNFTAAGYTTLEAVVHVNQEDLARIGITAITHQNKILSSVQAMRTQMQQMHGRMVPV", "experiment": "Selectivity interaction (Ambit KINOMEscan and KiNATiv profiling in Jurkat cells) EUB0000090b EPHA4", "format": "cell-based", "conditions": "at 1 µM"}, "[7]": {"target": "Bone morphogenetic protein receptor type-1A (Homo sapiens, UniProt P36894)", "sequence (P36894 whole entry)": "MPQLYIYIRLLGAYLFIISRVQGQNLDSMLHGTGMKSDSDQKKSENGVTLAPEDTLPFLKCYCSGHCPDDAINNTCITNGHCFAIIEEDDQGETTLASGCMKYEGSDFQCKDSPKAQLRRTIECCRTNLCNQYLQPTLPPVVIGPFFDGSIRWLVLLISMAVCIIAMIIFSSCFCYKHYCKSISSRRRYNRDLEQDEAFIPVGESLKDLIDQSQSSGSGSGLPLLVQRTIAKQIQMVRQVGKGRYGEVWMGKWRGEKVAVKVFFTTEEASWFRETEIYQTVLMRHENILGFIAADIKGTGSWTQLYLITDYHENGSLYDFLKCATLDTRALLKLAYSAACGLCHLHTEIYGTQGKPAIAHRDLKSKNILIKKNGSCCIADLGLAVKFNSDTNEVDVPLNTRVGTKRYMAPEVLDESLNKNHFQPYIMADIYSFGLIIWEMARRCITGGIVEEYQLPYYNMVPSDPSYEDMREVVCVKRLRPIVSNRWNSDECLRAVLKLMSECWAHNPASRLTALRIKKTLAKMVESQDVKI", "experiment": "Selectivity interaction (KinomeScan (DiscoverX)) EUB0000045b BMPR1A"}, "[8]": {"target": "Mitogen-activated protein kinase 14 (Homo sapiens, UniProt Q16539)", "sequence (Q16539 whole entry)": "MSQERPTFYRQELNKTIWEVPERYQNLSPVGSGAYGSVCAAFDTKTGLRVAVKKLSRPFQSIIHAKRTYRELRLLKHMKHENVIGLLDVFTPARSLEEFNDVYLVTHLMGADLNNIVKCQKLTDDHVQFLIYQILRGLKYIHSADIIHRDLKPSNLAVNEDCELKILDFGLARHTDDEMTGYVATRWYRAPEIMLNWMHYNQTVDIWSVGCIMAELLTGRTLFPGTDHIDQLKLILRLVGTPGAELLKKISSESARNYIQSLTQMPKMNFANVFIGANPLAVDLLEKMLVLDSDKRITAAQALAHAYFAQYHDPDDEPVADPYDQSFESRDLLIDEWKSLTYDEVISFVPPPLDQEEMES", "experiment": "Selectivity interaction (KinomeScan (DiscoverX)) EUB0001619a MAPK14", "conditions": "at 1 µM"}, "[9]": {"target": "Cyclin-dependent kinase 3 (Homo sapiens) (UniProt Q00526)", "sequence (Q00526 whole entry, looked up)": "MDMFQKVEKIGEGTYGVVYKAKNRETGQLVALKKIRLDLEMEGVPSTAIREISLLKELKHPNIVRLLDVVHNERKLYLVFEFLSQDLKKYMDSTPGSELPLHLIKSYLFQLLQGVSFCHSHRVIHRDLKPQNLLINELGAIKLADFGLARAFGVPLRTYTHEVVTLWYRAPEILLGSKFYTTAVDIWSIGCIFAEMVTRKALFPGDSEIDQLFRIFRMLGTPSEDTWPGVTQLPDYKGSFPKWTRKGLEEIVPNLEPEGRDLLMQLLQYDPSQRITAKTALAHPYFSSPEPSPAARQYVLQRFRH", "experiment": "Selectivity interaction (KinomeScan (DiscoverX)) EUB0001619a CDK3", "conditions": "at 1 µM"}, "[10]": {"target": "T2, Testis-specific serine/threonine-protein kinase 1 (Homo sapiens) (UniProt Q9BXA7)", "T2 sequence (whole entry)": "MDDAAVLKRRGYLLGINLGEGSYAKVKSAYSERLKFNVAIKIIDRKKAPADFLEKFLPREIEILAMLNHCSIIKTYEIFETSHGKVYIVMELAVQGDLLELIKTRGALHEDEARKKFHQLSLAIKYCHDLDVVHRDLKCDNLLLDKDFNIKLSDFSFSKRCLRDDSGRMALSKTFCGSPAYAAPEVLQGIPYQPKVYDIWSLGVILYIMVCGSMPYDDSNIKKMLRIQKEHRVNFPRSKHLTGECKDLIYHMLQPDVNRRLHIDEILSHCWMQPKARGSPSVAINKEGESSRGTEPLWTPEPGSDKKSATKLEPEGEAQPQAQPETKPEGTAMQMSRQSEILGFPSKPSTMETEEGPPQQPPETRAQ", "experiment": "Selectivity interaction (KinomeScan (DiscoverX)) EUB0000655a TSSK1A", "conditions": "at 10 µM"}, "[11]": {"target": "Mitogen-activated protein kinase kinase kinase 9 (Homo sapiens) (UniProt P80192)", "sequence (P80192 whole entry, looked up)": "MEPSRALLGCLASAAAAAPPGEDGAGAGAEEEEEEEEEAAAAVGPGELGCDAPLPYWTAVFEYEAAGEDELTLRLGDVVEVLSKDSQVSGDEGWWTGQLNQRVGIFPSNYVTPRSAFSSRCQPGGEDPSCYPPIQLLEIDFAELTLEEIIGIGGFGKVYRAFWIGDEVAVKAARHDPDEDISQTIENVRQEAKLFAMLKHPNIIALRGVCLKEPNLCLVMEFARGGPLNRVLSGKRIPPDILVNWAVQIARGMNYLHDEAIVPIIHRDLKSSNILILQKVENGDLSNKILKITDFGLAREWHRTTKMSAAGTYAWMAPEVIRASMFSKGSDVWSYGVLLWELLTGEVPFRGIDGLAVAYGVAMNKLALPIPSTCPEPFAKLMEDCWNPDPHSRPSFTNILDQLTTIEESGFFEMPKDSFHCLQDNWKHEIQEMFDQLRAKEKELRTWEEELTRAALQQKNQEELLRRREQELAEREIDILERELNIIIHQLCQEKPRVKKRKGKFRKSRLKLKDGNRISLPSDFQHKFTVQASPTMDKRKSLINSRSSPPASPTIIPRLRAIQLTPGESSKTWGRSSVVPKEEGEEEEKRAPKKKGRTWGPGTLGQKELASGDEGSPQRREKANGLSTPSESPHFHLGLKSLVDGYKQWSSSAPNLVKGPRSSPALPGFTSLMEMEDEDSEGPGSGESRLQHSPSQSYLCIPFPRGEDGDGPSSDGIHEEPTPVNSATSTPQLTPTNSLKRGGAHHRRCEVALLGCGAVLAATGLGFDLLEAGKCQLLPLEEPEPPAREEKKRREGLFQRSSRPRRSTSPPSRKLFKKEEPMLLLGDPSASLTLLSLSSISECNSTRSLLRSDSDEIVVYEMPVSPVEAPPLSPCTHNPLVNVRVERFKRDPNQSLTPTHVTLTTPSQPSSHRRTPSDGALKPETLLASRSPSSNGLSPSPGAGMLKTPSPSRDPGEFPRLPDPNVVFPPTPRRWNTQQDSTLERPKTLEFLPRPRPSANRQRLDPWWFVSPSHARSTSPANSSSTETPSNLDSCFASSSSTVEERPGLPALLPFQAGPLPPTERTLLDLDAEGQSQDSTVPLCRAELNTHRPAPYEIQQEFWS", "experiment": "Selectivity interaction (KinomeScan (DiscoverX)) EUB0000695a MAP3K9", "conditions": "at 100 nM"}}}
{"molecule": "CC(=O)c1cc(-c2ccccc2OCC2CC2)c2ncccn12", "values": [{"measurement": "% of control", "setting": "[1]", "value": 115, "unit": "%"}]}
{"molecule": "Nc1cnc(N2CCc3cc(S(=O)(=O)Nc4c(F)cc(Cl)cc4F)cc(N4CCCC4=O)c32)nc1", "note": "[TP-020n]", "values": [{"measurement": "% of control", "setting": "[2]", "value": 100, "unit": "%"}]}
{"molecule": "CC[C@@H]1[C@H](F)C(=O)N[C@@H]1COc1nccc2cc(C(N)=O)c(OC)cc12", "note": "[ZIMLOVISERTIB]", "values": [{"measurement": "% of inhibition", "setting": "[3]; at 0.01 µM", "value": -0.4, "unit": "%"}, {"measurement": "% of inhibition", "setting": "[3]; at 0.04 µM", "value": 9.9, "unit": "%"}, {"measurement": "% of inhibition", "setting": "[3]; at 0.2 µM", "value": -6.2, "unit": "%"}, {"measurement": "% of inhibition", "setting": "[3]; at 1 µM", "value": -5.5, "unit": "%"}, {"measurement": "% of inhibition", "setting": "[3]; at 5 µM", "value": 3.9, "unit": "%"}, {"measurement": "% of inhibition", "setting": "[4]", "value": 14.2, "unit": "%"}]}
{"molecule": "CCC(=O)N1CCN(c2ccc(-n3c(=O)ccc4cnc5ccc(-c6cnc7ccccc7c6)cc5c43)cc2C(F)(F)F)CC1", "values": [{"measurement": "% of control", "setting": "[5]", "value": 84, "unit": "%"}]}
{"molecule": "CN(C)C/C=C/C(=O)Nc1ccc(C(=O)N2CCCC(Nc3ncc(Cl)c(-c4c[nH]c5ccccc45)n3)C2)cc1", "note": "(stereo unspecified)", "values": [{"measurement": "% of control", "setting": "[6]", "value": 98, "unit": "%"}]}
{"molecule": "C=CC(=O)Nc1cc(-n2c(=O)ccc3cnc4ccc(-c5ccc(NS(C)(=O)=O)cc5)cc4c32)ccc1C", "values": [{"measurement": "% of control", "setting": "[7]; at 1 µM", "value": 84, "unit": "%"}, {"measurement": "% of control", "setting": "[7]; at 10 µM", "value": 100, "unit": "%"}]}
{"molecule": "N#Cc1cccc(-c2c[nH]c3ncnc(N4CCOCC4)c23)c1", "values": [{"measurement": "% of control", "setting": "[8]", "value": 100, "unit": "%"}, {"measurement": "% of control", "setting": "[9]", "value": 93, "unit": "%"}]}
{"molecule": "CN(C)CCOc1ccc(-c2nc(-c3ccncc3)c(-c3ccc4c(c3)CC/C4=N\\O)[nH]2)cc1", "values": [{"measurement": "% of control", "setting": "[10]", "value": 86, "unit": "%"}]}
{"molecule": "Cc1cc(F)c(C(=O)Nc2cccc(-c3nncn3C(C)C)n2)cc1-n1cnc(C2CC2)c1", "values": [{"measurement": "% of control", "setting": "[11]", "value": 99, "unit": "%"}]}
